Experimental data published in US20060074046A1, “Oral administration of decitabine salt” (priority 2004, published 2006).
Converted amounts (≈) assume the structure as drawn. Structures can show the parent of a compound that is named as a salt. Where two headings read alike, the source gives them in different places.

Key:
[1] = Hygroscopicity, weight gain in 1 week at relative humidity; format: physicochemical; conditions: solid state
[2] = 1 min
[3] = 0.05 M phosphate buffer; for Potency Found (%) At pH 2.5 / Potency Found (%) At pH 7.0: 0.5 mg/mL, ambient
physchem = conditions: water, thermodynamic from solid, Total Solubility

| Compound | Hygroscopicity-% weight gain in 1 week ([1]; 56% RH) [%] | Hygroscopicity-% weight gain in 1 week ([1]; 98% RH) [%] | Total Solubility [2] [mg/mL] | solution stability compared with the free base ([3]; pH 7.0 and 2.5) | Potency Found (%) At pH 2.5 ([3]; t = 0.5 hr) [%] | Potency Found (%) At pH 7.0 ([3]; t = 0.5 hr) [%] | Potency Found (%) At pH 2.5 ([3]; t = 24 hr) [%] | Potency Found (%) At pH 7.0 ([3]; t = 24 hr) [%] | solubility at 1 min (physchem) [mg/mL] | solubility at 1 min (physchem; decitabine or azacitidine free base equivalents) [mg/mL] |
| --- | --- | --- | --- | --- | --- | --- | --- | --- | --- | --- |
| Nc1ncn([C@@H]2O[C@H](CO)C(O)C2O)c(=O)n1 (some centres unmarked) [Compound 19, azacitidine mesylate] | 6.05 | 38.11 | 205 | slightly less than the free azacitidine base | 64.56 | 77.47 | 49.94 | 65.79 | 205 | 137 |
| Nc1ncn([C@@H]2O[C@H](CO)[C@@H](O)[C@H]2O)c(=O)n1 [Compound 2, 5-azacytidine, reference compound] | 1.74 | 5.61 | 14 |  | 73.62 | 86.74 |  | 79.43 | 14 (≈ 57.3 mM) |  |
